Assay results as given in patent US10487093B2, “Heterocyclic compounds, in particular 2-oxo-4,4,5,5,6,6,7,7-octahydrobenzoxazole derivatives, and their use as antibacterial compounds” (priority 2016, dated 2019).
Converted amounts (≈) assume the structure as drawn. Like-named read-outs stand apart in the source and are kept apart here.

How the values were obtained:
[1] = system: Escherichia coli ATCC 25922; assay: MIC, broth microdilution (CLSI) versus planktonic bacteria; format: cell-based; details: Escherichia coli ATCC 25922, 16-20 h, mode of three independent experiments; for MIC: ATCC25922, read-out: MIC, Ec ATCC 25922
[2] = system: E. coli MG1655; assay: as above; format: cell-based, Escherichia coli; details: for MIC: Escherichia coli, MG1655, read-out: MIC, Ec MG1655 WT
[3] = system: Enterobacter cloacae NCTC 13406; assay: as above; format: cell-based; details: Enterobacter cloacae NCTC 13406, 16-20 h, mode of three independent experiments; for MIC: NCTC13406, read-out: MIC, Ecl NCTC 13406
[4] = system: E. coli MG1655 D87G; format: cell-based, Escherichia coli
[5] = system: Haemophilus influenzae ATCC 49247; assay: MIC, broth microdilution (CLSI) versus planktonic bacteria; format: cell-based; details: Haemophilus influenzae ATCC 49247, 16-20 h, mode of three independent experiments; for MIC: ATCC49247, read-out: MIC, Hi ATCC 49247
[6] = system: Acinetobacter baumannii ATCC 19606; assay: as above; format: cell-based; details: Acinetobacter baumannii ATCC 19606, 16-20 h, mode of three independent experiments; for MIC: ATCC19606, read-out: MIC, Ab ATCC 19606
[7] = system: human hepatic cell line (HepG2 ATCC HB-8065); assay: Human cell viability assay (CellTiter-Glo); details: for IC50: Homo sapiens, HepG2, 24 h, read-out: IC50 (μg/mL) HepG2
[8] = system: E. coli MG1655 S83L; format: cell-based, Escherichia coli
[9] = system: Acinetobacter baumannii NCTC 13420; assay: MIC, broth microdilution (CLSI) versus planktonic bacteria; format: cell-based; details: Acinetobacter baumannii NCTC 13420, 16-20 h, mode of three independent experiments; for MIC: NCTC13420, read-out: MIC, Ab NCTC 13420
[10] = system: Pseudomonas aeruginosa ATCC 27853; assay: as above; format: cell-based; details: Pseudomonas aeruginosa ATCC 27853, 16-20 h, mode of three independent experiments; for MIC: ATCC27853, read-out: MIC, Pa ATCC 27853
[11] = system: Streptococcus pneumoniae ATCC 49619; assay: as above; format: cell-based; details: Streptococcus pneumoniae ATCC 49619, 16-20 h, mode of three independent experiments; for MIC: ATCC49619, read-out: MIC, Sp ATCC 49619
[12] = system: E. coli ATCC BAA-2452; assay: as above; format: cell-based; details: Escherichia coli ATCC BAA-2452, 16-20 h, mode of three independent experiments; for MIC: read-out: MIC, Ec ATCC BAA 2452
[13] = system: Staphylococcus aureus ATCC 29213; assay: as above; format: cell-based; details: Staphylococcus aureus ATCC 29213, 16-20 h, mode of three independent experiments; for MIC: ATCC29213, read-out: MIC, Sa ATCC 29213
[14] = system: E. coli NCTC 13476; assay: as above; format: cell-based; details: Escherichia coli NCTC 13476, 16-20 h, mode of three independent experiments; for MIC: NCTC13476, read-out: MIC, Ec NCTC 13476
[15] = compared to the isogenic parent strain E. coli MG1655, D87G mutation on DNA gyrase subunit GyrA
[16] = compared to the isogenic parent strain E. coli MG1655, S83L mutation on DNA gyrase subunit GyrA

Compound	MIC [1]	MIC [2]	MIC [3]	Fold increase in MIC, E. coli MG1655 D87G [4, 15]	MIC [5]	MIC [6]	IC50 [7]	Fold increase in MIC, E. coli MG1655 S83L [8, 16]	MIC [9]	MIC [10]	MIC [11]	MIC [12]	MIC [13]	MIC [14]	other results
N#Cc1cnc2ccc(=O)n(CCN[C@H]3CC[C@H]4[C@@H](C3)OC(=O)N4c3ccc4c(n3)NC(=O)CO4)c2c1 [Compound 46, 5-(2-{[(3aS,6S,7aR)-2-oxo-3-{3-oxo-2H,3H,4H-pyrido[3,2-b][1,4]oxazin-6-yl}-octahydro-1,3-benzoxazol-6-yl]amino}ethyl)-6-oxo-5,6-dihydro-1,5-naphthyridine-3-carbonitrile]	< 1 µg/mL	< 1 µg/mL	< 1 µg/mL	1 fold	< 1 µg/mL	1 to 10 µg/mL (≈ 1.99 to 19.9 µM)	> 100 µg/mL	2 fold	1 to 10 µg/mL (≈ 1.99 to 19.9 µM)	1 to 10 µg/mL (≈ 1.99 to 19.9 µM)	< 1 µg/mL	1 to 10 µg/mL (≈ 1.99 to 19.9 µM)	< 1 µg/mL	1 to 10 µg/mL (≈ 1.99 to 19.9 µM)	
1-[(2S)-3-{[(3aS,6S,7aS)-2-oxo-3-{3-oxo-2H,3H,4H-pyrido[3,2-b][1,4]oxazin-6-yl}-octahydro-1,3-benzoxazol-6-yl]amino}-2-hydroxypropyl]-7-fluoro-1,2-dihydroquinoxalin-2-one & 1-[(2R)-3-{[(3aS,6S,7aS)-2-oxo-3-{3-oxo-2H,3H,4H-pyrido[3,2-b][1,4]oxazin-6-yl}-octahydro-1,3-benzoxazol-6-yl]amino}-2-hydroxypropyl]-7-fluoro-1,2-dihydroquinoxalin-2-one [Compound 95]															MIC, Ec ATCC 25922 [1]: A (an MIC (in μg/mL) of less or equal to 1 is assigned the letter A); MIC, Ec MG1655 WT ([2]; Escherichia coli MG1655 WT, 16-20 h, mode of three independent experiments): A (an MIC (in μg/mL) of less or equal to 1 is assigned the letter A); MIC, Ecl NCTC 13406 [3]: B (a MIC of from 1 to 10 is assigned the letter B); Fold increase in MIC, E. coli MG1655 D87G [4]: 1 fold; MIC, Hi ATCC 49247 [5]: A (an MIC (in μg/mL) of less or equal to 1 is assigned the letter A); MIC, Ab ATCC 19606 [6]: B (a MIC of from 1 to 10 is assigned the letter B); IC50 (μg/mL) HepG2 ([7]; HepG2 cell viability, 24 h, CellTiter-Glo): A (an IC50 of over 100 is assigned the letter A); Fold increase in MIC, E. coli MG1655 S83L [8]: 0.5 fold; MIC, Ab NCTC 13420 [9]: A (an MIC (in μg/mL) of less or equal to 1 is assigned the letter A); MIC, Pa ATCC 27853 [10]: B (a MIC of from 1 to 10 is assigned the letter B); MIC, Sp ATCC 49619 [11]: A (an MIC (in μg/mL) of less or equal to 1 is assigned the letter A); MIC, Ec ATCC BAA 2452 [12]: A (an MIC (in μg/mL) of less or equal to 1 is assigned the letter A); MIC, Sa ATCC 29213 [13]: A (an MIC (in μg/mL) of less or equal to 1 is assigned the letter A); MIC, Ec NCTC 13476 [14]: A (an MIC (in μg/mL) of less or equal to 1 is assigned the letter A)
N#Cc1ccc2ccc(=O)n(CCN[C@H]3CC[C@H]4[C@@H](C3)OC(=O)N4c3ccc4c(n3)NC(=O)CO4)c2n1 [Compound 15, 8-(2-{[(3aS,6S,7aR)-2-oxo-3-{3-oxo-2H,3H,4H-pyrido[3,2-b][1,4]oxazin-6-yl}-octahydro-1,3-benzoxazol-6-yl]amino}ethyl)-7-oxo-7,8-dihydro-1,8-naphthyridine-2-carbonitrile]	< 1 µg/mL	1 to 10 µg/mL (≈ 1.99 to 19.9 µM)	1 to 10 µg/mL (≈ 1.99 to 19.9 µM)	1 fold	1 to 10 µg/mL (≈ 1.99 to 19.9 µM)	1 to 10 µg/mL (≈ 1.99 to 19.9 µM)	10 to 100 µg/mL (≈ 19.9 to 199 µM)	1 fold	1 to 10 µg/mL (≈ 1.99 to 19.9 µM)	1 to 10 µg/mL (≈ 1.99 to 19.9 µM)	< 1 µg/mL	1 to 10 µg/mL (≈ 1.99 to 19.9 µM)	< 1 µg/mL	1 to 10 µg/mL (≈ 1.99 to 19.9 µM)	
CN(CCn1c(=O)ccc2ccc(C#N)cc21)[C@H]1CC[C@H]2[C@@H](C1)OC(=O)N2c1ccc2c(n1)NC(=O)CO2 [Compound 47, 1-(2-{[(3aS,6S,7aR)-2-oxo-3-{3-oxo-2H,3H,4H-pyrido[3,2-b][1,4]oxazin-6-yl}-octahydro-1,3-benzoxazol-6-yl](methyl)amino}ethyl)-2-oxo-1,2-dihydroquinoline-7-carbonitrile]	< 1 µg/mL	< 1 µg/mL	< 1 µg/mL	1 fold	< 1 µg/mL	< 1 µg/mL	10 to 100 µg/mL (≈ 19.4 to 194 µM)	2 fold	< 1 µg/mL	< 1 µg/mL	< 1 µg/mL	< 1 µg/mL	< 1 µg/mL	1 to 10 µg/mL (≈ 1.94 to 19.4 µM)	
COc1ccc2ccc(=O)n(CCCN[C@H]3CC[C@H]4[C@H](C3)OC(=O)N4c3ccc4c(n3)NC(=O)CS4)c2n1 [Compound 85, 1-(3-{[(3aS,6S,7aS)-2-oxo-3-{3-oxo-2H,3H,4H-pyrido[3,2-b][1,4]thiazin-6-yl}-octahydro-1,3-benzoxazol-6-yl]amino}propyl)-7-methoxy-1,2-dihydro-1,8-naphthyridin-2-one]	< 1 µg/mL	< 1 µg/mL	< 1 µg/mL	1 fold	< 1 µg/mL	< 1 µg/mL	10 to 100 µg/mL (≈ 18.6 to 186 µM)	1 fold	< 1 µg/mL	1 to 10 µg/mL (≈ 1.86 to 18.6 µM)	< 1 µg/mL	< 1 µg/mL	< 1 µg/mL	< 1 µg/mL	
COc1ccc2ncc(=O)n(CCN[C@H]3CC[C@H]4[C@@H](C3)OC(=O)N4c3ccc4c(n3)NC(=O)CO4)c2n1 [Compound 35, (3aS,6S,7aR)-6-[(2-{6-methoxy-3-oxo-3H,4H-pyrido[2,3-b]pyrazin-4-yl}ethyl)amino]-3-{3-oxo-2H,3H,4H-pyrido[3,2-b][1,4]oxazin-6-yl}-octahydro-1,3-benzoxazol-2-one]	< 1 µg/mL	< 1 µg/mL	< 1 µg/mL	2 fold	< 1 µg/mL	< 1 µg/mL	> 100 µg/mL	1 fold	< 1 µg/mL	< 1 µg/mL	< 1 µg/mL	< 1 µg/mL	< 1 µg/mL	< 1 µg/mL	
O=C1COc2ccc(N3C(=O)O[C@H]4C[C@@H](NCCn5c(=O)cnc6ccc(F)cc65)CC[C@@H]43)nc2N1 [Compound 84, 1-(2-{[(3aS,6S,7aS)-2-oxo-3-{3-oxo-2H,3H,4H-pyrido[3,2-b][1,4]oxazin-6-yl}-octahydro-1,3-benzoxazol-6-yl]amino}ethyl)-7-fluoro-1,2-dihydroquinoxalin-2-one]	< 1 µg/mL	< 1 µg/mL	< 1 µg/mL	1 fold	< 1 µg/mL	< 1 µg/mL	10 to 100 µg/mL (≈ 20.2 to 202 µM)	1 fold		1 to 10 µg/mL (≈ 2.02 to 20.2 µM)	< 1 µg/mL	< 1 µg/mL	< 1 µg/mL	< 1 µg/mL	
N#Cc1ccc2ccc(=O)n(CCN[C@H]3CC[C@H]4[C@H](C3)OC(=O)N4c3ccc4c(n3)NC(=O)CO4)c2c1 [Compound 56, 1-(2-{[(3aS,6S,7aS)-2-oxo-3-{3-oxo-2H,3H,4H-pyrido[3,2-b][1,4]oxazin-6-yl}-octahydro-1,3-benzoxazol-6-yl]amino}ethyl)-2-oxo-1,2-dihydroquinoline-7-carbonitrile]	< 1 µg/mL	< 1 µg/mL	< 1 µg/mL	2 fold	< 1 µg/mL	< 1 µg/mL	10 to 100 µg/mL (≈ 20 to 200 µM)	1 fold	< 1 µg/mL		< 1 µg/mL	< 1 µg/mL	< 1 µg/mL	< 1 µg/mL	
